Data on 15 compounds can be found in PubChem BioAssay AID651639 (Sanford-Burnham Center for Chemical Genomics, 2012).

Molecules are shown by their SMILES. Active and inactive are the calls of the source. How the calls were made is not given here.

This experiment has as its target corticotropin-releasing factor-binding protein / CRF receptor 2 complex (human). Briefly: CRF-BP/CRF-R2 complex antagonists, dose response, cell-based, uHTS hits, 384-well (AID 651639). The note with it: CRF-BP/CRF-R2 complex antagonism, cell-based 384-well.

For `O=C1N=c2ccccc2=C1c1sc(=S)n(NC(=O)c2cccc(O)c2)c1O`, the IC50 is > 20 µM (inactive).

`N#C/C(=C(/O)COc1ccc(Cl)cc1)c1nc2ccccc2s1`: the IC50 was > 20 µM (inactive).

In the case of `COc1ccc(C(C)=NNc2ccc([N+](=O)[O-])cc2S(=O)(=O)Nc2ccccc2C(=O)O)c(OC)c1`, the IC50 is 9.4 µM.

Consider `Cc1ccc2nc(N3C(=O)C(O)=C(C(=O)c4ccc(C)o4)C3c3cccc(O)c3)sc2c1` (stereo not given), for which the half-inhibitory concentration (IC50) was 10.4 µM.

Take `N#C/C(=C(/O)Cc1cccc2ccccc12)c1nc2ccccc2s1`: the IC50 is 11.3 µM.

As to `COC(=O)c1ccc(/C(O)=C(\C#N)c2nc3ccccc3s2)cc1`, the IC50 is > 20 µM (inactive).

Take `O=[N+]([O-])c1cc(/C=N\O)ccc1Oc1ccc(F)cc1`: the IC50 is 17.5 µM.

For `O=C(O)c1ccc(/C=N/Nc2cccc(C(F)(F)F)c2)cc1`, the IC50 is > 20 µM (inactive).

As to `Cc1ccc(-n2[nH]c(C)c(/C=N/Nc3ccc([N+](=O)[O-])cc3[N+](=O)[O-])c2=O)cc1`, the IC50 is 15.5 µM.

Regarding `Cc1ccc2nc(N3C(=O)C(O)=C(C(=O)c4ccco4)C3c3cccc(O)c3)sc2c1` (stereo not given), the IC50 was > 20 µM (inactive).

`CN1C(=O)C(N=Nc2ccc([N+](=O)[O-])cc2)SC1=S` (stereo not given): the IC50 is 1 µM.

Consider `Cc1ccc(S(=O)(=O)N(CC(=O)N=Nc2c(O)[nH]c3ccccc23)c2ccc(C)c(C)c2)cc1`, for which the IC50 was > 20 µM (inactive).

`CN1c2ccccc2C(O)=C(C(=S)Nc2ccc(Cl)cc2)S1(=O)=O`: the IC50 is > 20 µM (inactive).

As for `COc1ccc(/C=N/OCC(=O)N=Nc2c(O)[nH]c3ccc(Br)cc23)cc1`, the IC50 was > 20 µM (inactive).

On to `Cc1cc(=O)oc2c1ccc1oc(/C(=N/O)c3ccccc3)c(C)c12`, for which the IC50 was > 20 µM (inactive).
